The numbers were not newly measured in publication PMC11860437, “Gold Nanoparticles as a Platform for Delivery of Immunogenic Peptides to THP-1 Derived Macrophages: Insights into Nanotoxicity” (Vaccines, 2025), which cites them from elsewhere.

In one series the test system is HeLa, A549, and CHO. The settings on record: three cell lines (HeLa, A549, and CHO). The text has this: (§1) The cytotoxicity of p-Au68 was particularly high when conjugated with peptides p2 (~30–50% cell death) and p4 (~40–60% cell death). […] These peptides differ from each other by the presence of the arginine-rich TAT peptide (YGRKKRRQRRR). It is noteworthy that pTAT-functionalized NPs are considered a promising approach to overcome ...

Series [1] concerns K562 human erythroleukemia cells.
Source text: as §1

Consider YGRKKRRQRRR [pTAT], for which the toxicity entry in the series with HeLa, A549, and CHO is “low toxicity”. Also, in series [1], the membrane toxicity result is reported as “completely innocuous”.
